From ChEMBL document CHEMBL5528061, “Development of Potent MALT1 Inhibitors Featuring a Novel "2-Thioxo-2,3-dihydrothiazolo[4,5-d]pyrimidin-7(6H)-one" Scaffold for the Treatment of B Cell Lymphoma” (J Med Chem, 2024)
The source made the active and inactive calls. The rule behind the calls is not given here.

Experiments:
OCI-Ly1 [1] = test: Downregulation of NF-kappaB signalling pathway in human OCI-Ly1 cells at 0.5 uM incubated for 24 hrs by GSEA analysis; format: functional, cell-based
HBL1 [2] = test: Induction of apoptosis in human HBL1 cells assessed as increase in caspase-3 cleavage at 5 to 10 uM incubated for 12 hrs by Western blot analysis; format: functional, cell-based; conditions: dose 5-10 µM
HBL1 [3] = test: Downregulation of NF-kappaB signalling pathway in human HBL1 cells at 0.5 uM incubated for 24 hrs by KEGG enrichment analysis; format: functional, cell-based
TMD8 = test: Antitumor activity against human TMD8 cells xenografted in NCG mouse assessed as tumor growth suppression at 25 mg/kg/day, ip consecutively for 14 days; format: functional, organism-based; conditions: time 14.0 day
[4] = Glutathione reactivity in MeOH/DPBS assessed as peak area ratio at 10 ug/ml measured after 2 hrs by MS/MS analysis; format: physicochemical; conditions: at 10 µg/mL
[5] = Glutathione reactivity in MeOH/DPBS assessed as peak area ratio at 10 ug/ml measured immediately by MS/MS analysis; format: physicochemical; conditions: at 10 µg/mL
Caspase-7 (Homo sapiens) = Caspase-7 (Homo sapiens) (UniProt P55210); test: Inhibition of caspase-7 (unknown origin) using Ac-DEVD-AMC as substrate at 40 uM preincubated for 40 mins followed by substrate addition by microplate reader analysis relative to control
Chain of Caspase-7 (Homo sapiens) (P55210 24-198 limits assumed): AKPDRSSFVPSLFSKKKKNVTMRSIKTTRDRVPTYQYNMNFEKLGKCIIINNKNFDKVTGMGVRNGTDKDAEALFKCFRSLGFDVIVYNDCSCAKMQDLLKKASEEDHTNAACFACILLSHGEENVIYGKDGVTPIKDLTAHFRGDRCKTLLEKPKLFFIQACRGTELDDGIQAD
Chain of Caspase-7 (Homo sapiens) (P55210 207-303 limits assumed): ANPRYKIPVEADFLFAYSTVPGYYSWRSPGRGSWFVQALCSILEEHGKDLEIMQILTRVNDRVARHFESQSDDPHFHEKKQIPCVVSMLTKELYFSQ

[6] = Cmax in ICR mouse at 30 mg/kg, ip measured for 3 hrs by LC-MS/MS analysis; format: ADME, organism-based; conditions: in vivo
[7] = Toxicity in NCG mouse xenografted with human TMD8 cells assessed as body weight loss at 25 mg/kg/day, ip consecutively for 14 days; format: organism-based; conditions: in vivo, 336 h, time 14 day
[8] = target: Receptor tyrosine-protein kinase erbB-4 (Homo sapiens) (UniProt Q15303); test: Inhibition of ErbB4 (unknown origin) at 10 uM relative to control
Chain of Receptor tyrosine-protein kinase erbB-4 (Homo sapiens) (Q15303 whole entry): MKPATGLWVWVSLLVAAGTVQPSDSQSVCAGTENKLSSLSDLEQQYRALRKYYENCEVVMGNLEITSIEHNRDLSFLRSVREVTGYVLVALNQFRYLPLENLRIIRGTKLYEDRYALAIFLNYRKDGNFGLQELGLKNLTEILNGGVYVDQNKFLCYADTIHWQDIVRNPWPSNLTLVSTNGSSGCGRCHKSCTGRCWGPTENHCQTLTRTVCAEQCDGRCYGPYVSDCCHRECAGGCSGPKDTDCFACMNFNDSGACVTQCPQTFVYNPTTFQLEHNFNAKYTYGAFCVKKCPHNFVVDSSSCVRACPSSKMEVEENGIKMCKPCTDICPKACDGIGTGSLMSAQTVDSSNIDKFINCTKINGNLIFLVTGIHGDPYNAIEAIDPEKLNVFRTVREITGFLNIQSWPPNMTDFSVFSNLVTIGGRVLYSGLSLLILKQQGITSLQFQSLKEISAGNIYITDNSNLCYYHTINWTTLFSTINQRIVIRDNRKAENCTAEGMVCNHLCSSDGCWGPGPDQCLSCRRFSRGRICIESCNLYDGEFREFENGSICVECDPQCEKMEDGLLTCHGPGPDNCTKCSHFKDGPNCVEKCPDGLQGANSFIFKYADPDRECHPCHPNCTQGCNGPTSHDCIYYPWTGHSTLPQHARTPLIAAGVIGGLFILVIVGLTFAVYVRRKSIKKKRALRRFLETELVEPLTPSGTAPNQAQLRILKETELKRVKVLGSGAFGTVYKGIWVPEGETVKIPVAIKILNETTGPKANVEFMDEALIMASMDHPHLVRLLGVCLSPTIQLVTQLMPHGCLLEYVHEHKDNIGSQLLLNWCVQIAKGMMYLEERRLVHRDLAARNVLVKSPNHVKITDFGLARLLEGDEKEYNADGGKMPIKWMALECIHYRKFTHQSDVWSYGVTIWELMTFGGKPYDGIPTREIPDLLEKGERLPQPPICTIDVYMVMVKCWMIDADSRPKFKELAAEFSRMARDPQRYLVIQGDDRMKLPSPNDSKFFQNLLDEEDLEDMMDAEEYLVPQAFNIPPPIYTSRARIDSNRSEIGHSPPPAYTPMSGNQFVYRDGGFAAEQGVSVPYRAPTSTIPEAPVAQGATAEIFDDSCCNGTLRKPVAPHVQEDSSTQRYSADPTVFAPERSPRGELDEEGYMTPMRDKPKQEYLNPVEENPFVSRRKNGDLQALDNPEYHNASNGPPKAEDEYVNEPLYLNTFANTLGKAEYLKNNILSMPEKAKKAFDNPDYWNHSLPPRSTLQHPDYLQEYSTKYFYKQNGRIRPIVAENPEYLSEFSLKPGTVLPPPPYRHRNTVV

OCI-Ly1 [9] = test: Downregulation of NF-kappaB signalling pathway in human OCI-Ly1 cells at 0.5 uM incubated for 24 hrs by KEGG enrichment analysis; format: functional, cell-based
[10] = target: Tyrosine-protein kinase ABL1 (Homo sapiens) (UniProt P00519); test: Inhibition of Abl (unknown origin) at 10 uM relative to control
Chain of Tyrosine-protein kinase ABL1 (Homo sapiens) (P00519 whole entry): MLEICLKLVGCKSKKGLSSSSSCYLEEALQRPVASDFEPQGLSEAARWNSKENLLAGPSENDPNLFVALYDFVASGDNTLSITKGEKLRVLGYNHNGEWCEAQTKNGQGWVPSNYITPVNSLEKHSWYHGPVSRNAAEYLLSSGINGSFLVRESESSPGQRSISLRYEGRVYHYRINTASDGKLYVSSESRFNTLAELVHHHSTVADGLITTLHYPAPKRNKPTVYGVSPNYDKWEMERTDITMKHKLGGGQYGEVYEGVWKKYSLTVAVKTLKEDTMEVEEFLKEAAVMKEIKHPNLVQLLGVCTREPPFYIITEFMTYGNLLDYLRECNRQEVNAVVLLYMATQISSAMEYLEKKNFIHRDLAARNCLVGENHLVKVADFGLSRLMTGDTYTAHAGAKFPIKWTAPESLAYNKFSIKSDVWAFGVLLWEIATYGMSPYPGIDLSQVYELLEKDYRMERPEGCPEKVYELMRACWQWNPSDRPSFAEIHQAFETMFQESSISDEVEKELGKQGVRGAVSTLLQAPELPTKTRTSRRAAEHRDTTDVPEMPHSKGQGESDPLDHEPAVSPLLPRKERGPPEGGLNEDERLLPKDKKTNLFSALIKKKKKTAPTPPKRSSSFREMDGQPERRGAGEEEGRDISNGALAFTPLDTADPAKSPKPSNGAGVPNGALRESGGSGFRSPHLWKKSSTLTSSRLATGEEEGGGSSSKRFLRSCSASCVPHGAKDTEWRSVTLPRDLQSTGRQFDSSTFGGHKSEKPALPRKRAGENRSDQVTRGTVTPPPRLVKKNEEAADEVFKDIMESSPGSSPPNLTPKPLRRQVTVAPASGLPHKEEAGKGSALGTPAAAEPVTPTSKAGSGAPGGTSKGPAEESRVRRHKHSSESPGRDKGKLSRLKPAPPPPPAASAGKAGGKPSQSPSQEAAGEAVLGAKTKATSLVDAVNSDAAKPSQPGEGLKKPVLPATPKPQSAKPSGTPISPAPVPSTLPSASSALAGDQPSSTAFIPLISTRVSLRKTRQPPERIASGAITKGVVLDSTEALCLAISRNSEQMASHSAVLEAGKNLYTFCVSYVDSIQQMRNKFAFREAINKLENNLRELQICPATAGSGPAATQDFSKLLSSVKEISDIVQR

Ratio [4]: 43%
Ratio [5]: 100%
inhibition (Caspase-7 (Homo sapiens)): 30%
Cmax [6]: 779 ng/mL
inhibition [8]: < 30%
inhibition [10]: < 30%
Compound: COc1ccc(OC)c(-n2c(CBr)nc3c(sc(=S)n3-c3cccc(Cl)c3)c2=O)c1
Activity (OCI-Ly1 [1]): inactive
Activity (HBL1 [2]): Active
Activity (HBL1 [3]): Active
Activity (TMD8): Active
Activity [7]: Toxic
Activity (OCI-Ly1 [9]): Active
